Test results taken from BindingDB's records for patent US9669095 (Enanta Pharmaceuticals, 2017).

Target: Genome polyprotein (Hepatitis C virus genotype 1a (isolate H77), UniProt P27958)
Experiment: HCV Replicon Assay Luciferase
Conditions: 37 °C
Method: Briefly, replicon cells are seeded at 7,000 cells per well in 90 ul DMEM (without phenol red, Invitrogen Cat. #31053-036) per well with 10% FCS, 1% non-essential amino acids, 1% of Glutamax and 1% of 100 penicillin/streptomycin and incubated overnight at 37° C., 5% CO2, 100% relative humidity. 16-20 h after seeding cells, test compounds previously solubilized and titrated in dimethyl sulfoxide ( DMSO") from each X plate and Y plate are diluted 1:100 in DMEM (without phenol red, Invitrogen Cat. #31053-036) with 10% FCS, 1% non-essential amino acids, 1% of Glutamax and 1% of 100 penicillin/streptomycin and added directly to the 96-well plate containing cells and growth medium at a 1:10 dilution for a final dilution of compound and DMSO of 1:1000 ([…]). Drug treated cells are incubated at 37° C., 5% CO2, 100% relative humidity for 72 hours before performing a luciferase assay using 100 ul per well BriteLite Plus (Perkin Elmer) according to the manufacturer's instructions. Data analysis utilizes the method published by Prichard and Shipman (Antiviral Research, 1990. 14:181-205). Using this method, the combination data are analyzed for antagonistic, additive, or synergistic combination effects across the entire combination surface created by the diluted compounds in combination.

Chain of Genome polyprotein (P27958 whole entry): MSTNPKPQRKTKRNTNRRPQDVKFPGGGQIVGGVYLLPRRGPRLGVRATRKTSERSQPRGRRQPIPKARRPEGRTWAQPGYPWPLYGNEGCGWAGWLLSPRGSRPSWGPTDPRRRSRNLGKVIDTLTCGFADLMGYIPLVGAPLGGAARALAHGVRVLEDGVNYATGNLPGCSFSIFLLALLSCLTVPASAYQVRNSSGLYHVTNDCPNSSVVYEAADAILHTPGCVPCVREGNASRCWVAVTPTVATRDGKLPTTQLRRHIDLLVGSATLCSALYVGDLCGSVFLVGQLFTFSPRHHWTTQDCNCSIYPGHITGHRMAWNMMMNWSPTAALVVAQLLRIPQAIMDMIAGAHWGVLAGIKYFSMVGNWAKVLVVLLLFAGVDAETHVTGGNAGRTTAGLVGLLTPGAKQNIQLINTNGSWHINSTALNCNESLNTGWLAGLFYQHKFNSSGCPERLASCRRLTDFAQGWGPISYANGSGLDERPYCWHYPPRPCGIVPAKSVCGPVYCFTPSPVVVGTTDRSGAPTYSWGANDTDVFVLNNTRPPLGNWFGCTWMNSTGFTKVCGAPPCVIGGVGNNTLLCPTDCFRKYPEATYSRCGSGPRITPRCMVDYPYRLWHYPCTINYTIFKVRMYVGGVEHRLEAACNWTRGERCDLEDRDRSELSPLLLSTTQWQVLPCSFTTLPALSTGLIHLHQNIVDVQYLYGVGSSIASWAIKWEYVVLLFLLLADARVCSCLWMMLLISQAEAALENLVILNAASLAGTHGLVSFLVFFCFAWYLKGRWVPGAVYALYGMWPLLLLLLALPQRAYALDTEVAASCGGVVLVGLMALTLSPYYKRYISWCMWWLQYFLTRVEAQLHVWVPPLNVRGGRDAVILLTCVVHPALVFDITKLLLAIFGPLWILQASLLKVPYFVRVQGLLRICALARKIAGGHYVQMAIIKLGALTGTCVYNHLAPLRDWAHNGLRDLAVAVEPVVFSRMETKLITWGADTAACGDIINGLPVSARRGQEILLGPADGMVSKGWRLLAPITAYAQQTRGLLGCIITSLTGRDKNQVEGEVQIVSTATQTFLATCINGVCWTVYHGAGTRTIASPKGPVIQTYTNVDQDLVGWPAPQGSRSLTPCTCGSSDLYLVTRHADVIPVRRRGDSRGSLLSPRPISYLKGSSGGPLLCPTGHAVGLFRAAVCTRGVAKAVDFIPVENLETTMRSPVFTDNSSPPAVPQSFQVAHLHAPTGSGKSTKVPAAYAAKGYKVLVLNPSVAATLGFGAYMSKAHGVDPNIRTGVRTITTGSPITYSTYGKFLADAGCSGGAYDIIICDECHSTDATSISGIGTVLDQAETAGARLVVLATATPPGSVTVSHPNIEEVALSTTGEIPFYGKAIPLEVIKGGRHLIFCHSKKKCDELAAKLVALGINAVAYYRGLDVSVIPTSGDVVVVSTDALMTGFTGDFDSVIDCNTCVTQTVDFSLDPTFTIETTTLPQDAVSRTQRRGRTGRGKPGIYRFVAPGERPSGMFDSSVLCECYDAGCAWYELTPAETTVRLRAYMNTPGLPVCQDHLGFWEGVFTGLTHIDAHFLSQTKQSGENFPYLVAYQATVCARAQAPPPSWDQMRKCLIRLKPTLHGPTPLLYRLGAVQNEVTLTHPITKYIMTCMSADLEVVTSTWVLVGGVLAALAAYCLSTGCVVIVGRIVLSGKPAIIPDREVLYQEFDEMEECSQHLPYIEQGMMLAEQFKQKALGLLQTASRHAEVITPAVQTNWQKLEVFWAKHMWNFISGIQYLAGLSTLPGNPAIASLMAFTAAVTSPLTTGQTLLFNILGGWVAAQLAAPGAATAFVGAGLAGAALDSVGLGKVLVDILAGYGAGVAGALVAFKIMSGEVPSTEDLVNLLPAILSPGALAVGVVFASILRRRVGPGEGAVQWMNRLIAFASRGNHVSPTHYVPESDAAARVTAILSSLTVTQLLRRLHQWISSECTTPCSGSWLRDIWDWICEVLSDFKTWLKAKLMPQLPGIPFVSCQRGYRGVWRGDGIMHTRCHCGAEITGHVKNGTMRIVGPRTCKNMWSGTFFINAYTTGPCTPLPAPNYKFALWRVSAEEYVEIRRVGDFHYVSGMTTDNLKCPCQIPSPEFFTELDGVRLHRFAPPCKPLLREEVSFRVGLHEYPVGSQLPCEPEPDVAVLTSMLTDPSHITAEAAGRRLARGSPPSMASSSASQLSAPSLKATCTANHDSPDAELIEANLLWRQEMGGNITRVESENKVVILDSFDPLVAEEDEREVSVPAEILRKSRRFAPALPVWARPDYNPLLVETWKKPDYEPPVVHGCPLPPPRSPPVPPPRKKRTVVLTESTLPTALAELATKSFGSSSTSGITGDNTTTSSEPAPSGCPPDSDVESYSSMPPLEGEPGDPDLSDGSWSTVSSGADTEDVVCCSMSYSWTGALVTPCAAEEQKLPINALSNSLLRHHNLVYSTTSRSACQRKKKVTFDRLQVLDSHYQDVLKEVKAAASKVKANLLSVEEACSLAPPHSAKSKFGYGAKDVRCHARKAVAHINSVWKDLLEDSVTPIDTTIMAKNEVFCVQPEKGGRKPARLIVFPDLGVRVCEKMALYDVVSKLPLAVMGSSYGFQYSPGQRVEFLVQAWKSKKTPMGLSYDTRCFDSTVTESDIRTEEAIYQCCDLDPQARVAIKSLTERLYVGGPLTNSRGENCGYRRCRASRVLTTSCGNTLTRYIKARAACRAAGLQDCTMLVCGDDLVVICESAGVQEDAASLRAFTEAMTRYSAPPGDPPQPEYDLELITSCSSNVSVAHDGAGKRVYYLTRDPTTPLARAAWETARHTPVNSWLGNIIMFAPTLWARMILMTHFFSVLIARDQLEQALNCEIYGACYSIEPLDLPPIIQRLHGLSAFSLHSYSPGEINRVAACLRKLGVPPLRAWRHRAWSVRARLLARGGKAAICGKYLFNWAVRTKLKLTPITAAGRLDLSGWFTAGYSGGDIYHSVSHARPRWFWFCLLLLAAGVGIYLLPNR

| Structure (SMILES) | EC50 |
| --- | --- |
| C/C=C/C[C@@H](C)C(=O)[C@@H]1NC(=O)[C@H](C(C)C)N(C)C(=O)[C@H](CC(C)C)N(C)C(=O)[C@H](CC(C)C)N(C)C(=O)[C@@H](C)NC(=O)[C@H](C)NC(=O)[C@H](CC(C)C)N(C)C(=O)[C@H](C(C)C)NC(=O)[C@H](C(C)(C)CNC)N(C)C(=O)[C@@H](C)N(C)C(=O)[C@H](CC)NC1=O [US9669095, 1] | in the range around 0.055 µM |
| CCCC[C@@H](C)C(=O)[C@@H]1NC(=O)[C@H](C(C)C)N(C)C(=O)[C@H](CC(C)C)N(C)C(=O)[C@H](CC(C)C)N(C)C(=O)[C@@H](C)NC(=O)[C@H](C)NC(=O)[C@H](CC(C)C)N(C)C(=O)[C@H](C(C)C)NC(=O)[C@H](C(C)(C)CO)N(C)C(=O)[C@@H](C)N(C)C(=O)[C@H](CC)NC1=O [US9669095, 2] | in the range around 0.055 µM |
| CCCC[C@@H](C)C(=O)[C@@H]1NC(=O)[C@H](C(C)C)N(C)C(=O)[C@H](CC(C)C)N(C)C(=O)[C@H](CC(C)C)N(C)C(=O)[C@@H](C)NC(=O)[C@H](C)NC(=O)[C@H](CC(C)C)N(C)C(=O)[C@H](C(C)C)NC(=O)[C@H](C(C)(C)COC(=O)NC)N(C)C(=O)[C@@H](C)N(C)C(=O)[C@H](CC)NC1=O [US9669095, 3] | in the range around 0.055 µM |
| CCCC[C@@H](C)C(=O)[C@@H]1NC(=O)[C@H](C(C)C)N(C)C(=O)[C@H](CC(C)C)N(C)C(=O)[C@H](CC(C)C)N(C)C(=O)[C@@H](C)NC(=O)[C@H](C)NC(=O)[C@H](CC(C)C)N(C)C(=O)[C@H](C(C)C)NC(=O)[C@H](C(C)(C)COC(=O)N(C)C)N(C)C(=O)[C@@H](C)N(C)C(=O)[C@H](CC)NC1=O [US9669095, 4] | in the range around 0.055 µM |
| C/C=C/C[C@@H](C)C(=O)[C@@H]1NC(=O)[C@H](C(C)C)N(C)C(=O)[C@H](CC(C)C)N(C)C(=O)[C@H](CC(C)C)N(C)C(=O)[C@@H](C)NC(=O)[C@H](C)NC(=O)[C@H](CC(C)C)N(C)C(=O)[C@H](C(C)C)NC(=O)[C@H](C(C)(C)COC(=O)NC)N(C)C(=O)[C@@H](C)N(C)C(=O)[C@H](CC)NC1=O [US9669095, 5] | in the range around 0.055 µM |
| CC[C@@H]1NC(=O)[C@H](C(=O)[C@H](C)CCCCCN2CCOCC2)NC(=O)[C@@H](C(C)C)N(C)C(=O)[C@H](CC(C)C)N(C)C(=O)[C@H](CC(C)C)N(C)C(=O)[C@@H](C)NC(=O)[C@H](C)NC(=O)[C@@H](CC(C)C)N(C)C(=O)[C@H](C(C)C)NC(=O)[C@H](C(C)(C)CN(C)C(=O)OC)N(C)C(=O)[C@@H](C)N(C)C1=O [US9669095, 6] | in the range around 0.055 µM |
| CC[C@@H]1NC(=O)[C@H](C(=O)[C@H](C)CCCCCSc2nnnn2C)NC(=O)[C@H](C(C)C)N(C)C(=O)[C@H](CC(C)C)N(C)C(=O)[C@H](CC(C)C)N(C)C(=O)[C@@H](C)NC(=O)[C@H](C)NC(=O)[C@H](CC(C)C)N(C)C(=O)[C@H](C(C)C)NC(=O)[C@H](C(C)(C)CN(C)C(=O)OC)N(C)C(=O)[C@@H](C)N(C)C1=O [US9669095, 7] | in the range around 0.055 µM |
| CC[C@@H]1NC(=O)[C@H](C(=O)[C@H](C)CCCCCN2CCOCC2)NC(=O)[C@H](C(C)C)N(C)C(=O)[C@H](CC(C)C)N(C)C(=O)[C@H](CC(C)C)N(C)C(=O)[C@@H](C)NC(=O)[C@H](C)NC(=O)[C@H](CC(C)C)N(C)C(=O)[C@H](C(C)C)NC(=O)[C@H](C(C)(C)CN(C)C(=O)[C@@H](NC(=O)OC)C(C)C)N(C)C(=O)[C@@H](C)N(C)C1=O [US9669095, 8] | in the range around 0.055 µM |
| CC[C@@H]1NC(=O)[C@H](C(=O)[C@H](C)CCCCCSc2nnnn2C)NC(=O)[C@@H](C(C)C)N(C)C(=O)[C@H](CC(C)C)N(C)C(=O)[C@H](CC(C)C)N(C)C(=O)[C@@H](C)NC(=O)[C@H](C)NC(=O)[C@@H](CC(C)C)N(C)C(=O)[C@H](C(C)C)NC(=O)[C@H](C(C)(C)CN(C)C(=O)[C@@H](NC(=O)OC)C(C)C)N(C)C(=O)[C@@H](C)N(C)C1=O [US9669095, 9] | in the range around 0.055 µM |
| C/C=C/C[C@@H](C)C1ON2C(=O)[C@H](C(C)C)N(C)C(=O)[C@H](CC(C)C)N(C)C(=O)[C@@H](CC(C)C)N(C)C(=O)[C@@H](C)NC(=O)[C@H](C)NC(=O)[C@H](CC(C)C)N(C)C(=O)[C@H](C(C)C)NC(=O)[C@H](C(C)(C)COC(=O)NS(C)(=O)=O)N(C)C(=O)[C@@H](C)N(C)C(=O)[C@H](CC)NC(=O)[C@H]12 (stereo partly drawn) [US9669095, 11] | > 1 µM |
| C/C=C/C[C@@H](C)C1ON2C(=O)[C@H](C(C)C)N(C)C(=O)[C@H](CC(C)C)N(C)C(=O)[C@@H](CC(C)C)N(C)C(=O)[C@@H](C)NC(=O)[C@H](C)NC(=O)[C@H](CC(C)C)N(C)C(=O)[C@H](C(C)C)NC(=O)[C@H](C(C)(C)COC(=O)NS(=O)(=O)c3ccccc3)N(C)C(=O)[C@@H](C)N(C)C(=O)[C@H](CC)NC(=O)[C@H]12 (stereo partly drawn) [US9669095, 12] | in the range around 0.55 µM |
| C/C=C/C[C@@H](C)C1ON2C(=O)[C@H](C(C)C)N(C)C(=O)[C@H](CC(C)C)N(C)C(=O)[C@@H](CC(C)C)N(C)C(=O)[C@@H](C)NC(=O)[C@H](C)NC(=O)[C@H](CC(C)C)N(C)C(=O)[C@H](C(C)C)NC(=O)[C@H](C(C)(C)CN(C)C(=O)NS(C)(=O)=O)N(C)C(=O)[C@@H](C)N(C)C(=O)[C@H](CC)NC(=O)[C@H]12 (stereo partly drawn) [US9669095, 13] | in the range around 0.55 µM |
| C/C=C/C[C@@H](C)C1ON2C(=O)[C@H](C(C)C)N(C)C(=O)[C@H](CC(C)C)N(C)C(=O)[C@@H](CC(C)C)N(C)C(=O)[C@@H](C)NC(=O)[C@H](C)NC(=O)[C@H](CC(C)C)N(C)C(=O)[C@H](C(C)C)NC(=O)[C@H](C(C)(C)CN(C)C(=O)NS(=O)(=O)c3ccccc3)N(C)C(=O)[C@@H](C)N(C)C(=O)[C@H](CC)NC(=O)[C@H]12 (stereo partly drawn) [US9669095, 14] | in the range around 0.55 µM |
